In brackets after ≈: the same amount, converted by molar mass.
tested on: M. tuberculosis NTB1 (DprE1 C387S mutant); format: cell-based, Mycobacterium tuberculosis

Row | SMILES | MIC99 NTB1
1 | O=c1nc(N2CCN(S(=O)(=O)C3CC3)CC2)sc2c([N+](=O)[O-])cc(C(F)(F)F)cc12 [compound 11626091] | 14.7 µg/mL (≈ 31.7 µM)
2 | CO[C@H]1/C=C/O[C@@]2(C)Oc3c(C)c(O)c4c(O)c(c(/C=N/N5CCN(C)CC5)c(O)c4c3C2=O)NC(=O)/C(C)=C\C=C\[C@H](C)[C@H](O)[C@@H](C)[C@@H](O)[C@@H](C)[C@H](OC(C)=O)[C@@H]1C [Rifampin, reference compound] | 0.0008 µg/mL (≈ 0.000972 µM)
3 | O=c1nc(N2CCN(CC3CCCCC3)CC2)sc2c([N+](=O)[O-])cc(C(F)(F)F)cc12 [PBTZ169, macozinone, reference compound] | >100 µg/mL
4 | O=c1nc(N2CCN(S(=O)(=O)c3cccs3)CC2)sc2c([N+](=O)[O-])cc(C(F)(F)F)cc12 [compound 11326059] | >100 µg/mL
5 | CS(=O)(=O)N1CCN(c2nc(=O)c3cc(C(F)(F)F)cc([N+](=O)[O-])c3s2)CC1 [compound 11626095] | 75 µg/mL (≈ 171 µM)
6 | CCS(=O)(=O)N1CCN(c2nc(=O)c3cc(C(F)(F)F)cc([N+](=O)[O-])c3s2)CC1 [compound 11626092] | 25.1 µg/mL (≈ 55.5 µM)
7 | CCCCS(=O)(=O)N1CCN(c2nc(=O)c3cc(C(F)(F)F)cc([N+](=O)[O-])c3s2)CC1 [compound 11626093] | >100 µg/mL
8 | O=c1nc(N2CCN(S(=O)(=O)C3CCCCC3)CC2)sc2c([N+](=O)[O-])cc(C(F)(F)F)cc12 [compound 11326127] | >100 µg/mL
9 | O=c1nc(N2CCN(S(=O)(=O)c3cccc4cnccc34)CC2)sc2c([N+](=O)[O-])cc(C(F)(F)F)cc12 [compound 11626094] | >100 µg/mL
